Data reported in PubChem BioAssay (NCI).
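Following 48 hours of exposure in 96-well plates, responses at five concentrations were used to interpolate endpoints linearly. TGI: total growth inhibition.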

How the values were obtained:
Assay in all cases: inhibition of tumour cell growth, NCI panel, 48 h
[1] = test system: MOLT-4 leukemia
[2] = test system: SW-620 colon
[3] = test system: NCI-H522 lung
[4] = test system: HS 578T breast
[5] = test system: MDA-N
[6] = test system: K-562 leukemia
[7] = test system: A549 NSCLC
[8] = test system: OVCAR-5 ovarian
[9] = test system: SNB-75 CNS
[10] = test system: KM12 colon
[11] = test system: NCI/ADR-RES ovarian
[12] = test system: MALME-3M melanoma
[13] = test system: A498 renal
[14] = test system: MCF7 breast
[15] = test system: PC-3 prostate
[16] = test system: ACHN renal
[17] = test system: OVCAR-8 ovarian
[18] = test system: NCI-H226 lung
[19] = test system: U251 CNS
[20] = test system: SN12C renal
[21] = test system: T-47D breast
[22] = test system: HCT-15 colon
[23] = test system: SK-MEL-2 melanoma
[24] = test system: MDA-MB-231 breast
[25] = test system: HT29 colon
[26] = test system: RPMI-8226 leukemia
[27] = test system: HL-60(TB) leukemia
[28] = test system: RXF 393 renal
[29] = test system: NCI-H23 lung
[30] = test system: DU-145 prostate
[31] = test system: IGROV1 ovarian
[32] = test system: SF-268 CNS
[33] = test system: LOX IMVI melanoma
[34] = test system: MDA-MB-435
[35] = test system: UO-31 renal
[36] = test system: M14 melanoma
[37] = test system: OVCAR-3 ovarian
[38] = test system: SF-539 CNS
[39] = test system: NCI-H460 lung
[40] = test system: SK-MEL-28 melanoma
[41] = test system: SNB-19 CNS
[42] = test system: SK-MEL-5 melanoma
[43] = test system: HOP-62 NSCLC
[44] = test system: EKVX NSCLC
[45] = test system: CCRF-CEM leukemia
[46] = test system: HOP-92 NSCLC
[47] = test system: HCC-2998 colon
[48] = test system: COLO 205 colon
[49] = test system: HCT-116 colon
[50] = test system: OVCAR-4 ovarian
[51] = test system: 786-0 renal
[52] = test system: SF-295 CNS
[53] = test system: BT-549 breast
[54] = test system: CAKI-1 renal
[55] = test system: SK-OV-3 ovarian
[56] = test system: UACC-62 melanoma
[57] = test system: UACC-257 melanoma
[58] = test system: TK-10 renal
[59] = test system: SR leukemia

With `CC(=O)OC/C=C\Cn1ncc(=O)[nH]c1=O` the TGI [1] was 44 µM, the TGI [2] was 40.5 µM and the TGI [3] was 32.4 µM. For the same molecule, the TGI [4] was > 100 µM, the TGI [5] was 31.8 µM and the TGI [6] was 54.9 µM. It also gave a TGI [7] of 58.9 µM, a TGI [8] of 32.3 µM and a TGI [9] of 33.9 µM. The TGI [10] was 31.3 µM, the TGI [11] was 50.6 µM and the TGI [12] was 31.5 µM. It also gave a TGI [13] of 31.9 µM, a TGI [14] of 45.1 µM and a TGI [15] of 36 µM. For the same molecule, the TGI [16] was 43.8 µM, the TGI [17] was 66.1 µM and the TGI [18] was 36 µM. The TGI [19] was 28.2 µM, the TGI [20] was 42 µM and the TGI [21] was 69.9 µM. The TGI [22] was 37.5 µM, the TGI [23] was 40.2 µM and the TGI [24] was 68 µM. It also gave a TGI [25] of 29.9 µM, a TGI [26] of 31.4 µM and a TGI [27] of 30.1 µM. For the same molecule, the TGI [28] was 37.1 µM, the TGI [29] was 28.9 µM and the TGI [30] was 42.8 µM. The TGI [31] was 42.5 µM, the TGI [32] was 36.7 µM and the TGI [33] was 13.3 µM. For the same molecule, the TGI [34] was 39.3 µM, the TGI [35] was 37.5 µM and the TGI [36] was 46.8 µM. It also gave a TGI [37] of 69.3 µM, a TGI [38] of 35.7 µM and a TGI [39] of 48.7 µM. For the same molecule, the TGI [40] was 50.2 µM, the TGI [41] was > 100 µM and the TGI [42] was 26.7 µM. The TGI [43] was 43.9 µM, the TGI [44] was 38.8 µM and the TGI [45] was 50.4 µM. For the same molecule, the TGI [46] was 30.6 µM, the TGI [47] was 35 µM and the TGI [48] was 37.9 µM.
In the case of `NN/C(=N\S(=O)(=O)c1cc(S(=O)(=O)c2ccccc2)cs1)Nc1ccc(Cl)cc1`, the TGI [1] is reported as 56.2 µM, the TGI [2] is reported as > 100 µM and the TGI [3] is reported as 41.3 µM. The TGI [5] was 59.2 µM, the TGI [49] was 74.6 µM and the TGI [6] was > 100 µM. For the same molecule, the TGI [7] was > 100 µM, the TGI [8] was > 100 µM and the TGI [9] was 67.2 µM. The TGI [10] was 89.6 µM, the TGI [50] was 66.5 µM and the TGI [11] was > 100 µM. The TGI [13] was > 100 µM, the TGI [51] was > 100 µM and the TGI [14] was > 100 µM. The TGI [52] was 75.5 µM, the TGI [15] was 69.7 µM and the TGI [16] was > 100 µM. For the same molecule, the TGI [17] was > 100 µM, the TGI [18] was > 100 µM and the TGI [19] was 89.6 µM. For the same molecule, the TGI [20] was > 100 µM, the TGI [21] was 55.9 µM and the TGI [22] was > 100 µM. For the same molecule, the TGI [23] was 38.2 µM, the TGI [24] was > 100 µM and the TGI [53] was > 100 µM. For the same molecule, the TGI [54] was > 100 µM, the TGI [55] was > 100 µM and the TGI [25] was > 100 µM. The TGI [26] was > 100 µM, the TGI [27] was 32.7 µM and the TGI [28] was 53.9 µM. For the same molecule, the TGI [29] was > 100 µM, the TGI [30] was > 100 µM and the TGI [31] was > 100 µM. For the same molecule, the TGI [32] was 89 µM, the TGI [33] was 54.9 µM and the TGI [56] was 43.2 µM. For the same molecule, the TGI [35] was > 100 µM, the TGI [36] was 48.1 µM and the TGI [57] was 47.5 µM. For the same molecule, the TGI [58] was 81.7 µM, the TGI [37] was 54.2 µM and the TGI [38] was > 100 µM. For the same molecule, the TGI [39] was 56.6 µM, the TGI [40] was > 100 µM and the TGI [41] was > 100 µM. For the same molecule, the TGI [42] was 32.3 µM, the TGI [43] was > 100 µM and the TGI [44] was 55.7 µM. For the same molecule, the TGI [45] was 69.2 µM, the TGI [59] was 48.5 µM and the TGI [46] was > 100 µM. The TGI [48] was 43.4 µM.
In the case of `CN(C)C12C=CC=CC3=C(c4ccccc4)C(c4ccccc4)=C(c4ccccc4)C31c1ccccc1C2` (stereo not given), the TGI [1] is reported as > 100 µM, the TGI [2] is reported as > 100 µM and the TGI [3] is reported as > 100 µM. The TGI [4] was > 100 µM, the TGI [5] was > 100 µM and the TGI [49] was > 100 µM. The TGI [6] was > 100 µM, the TGI [7] was > 100 µM and the TGI [8] was > 100 µM. The TGI [9] was > 100 µM, the TGI [10] was > 100 µM and the TGI [50] was > 100 µM. For the same molecule, the TGI [11] was > 100 µM, the TGI [51] was > 100 µM and the TGI [14] was > 100 µM. The TGI [52] was > 100 µM, the TGI [15] was > 100 µM and the TGI [16] was > 100 µM. The TGI [17] was > 100 µM, the TGI [19] was > 100 µM and the TGI [20] was > 100 µM. For the same molecule, the TGI [21] was > 100 µM, the TGI [22] was > 100 µM and the TGI [24] was > 100 µM. For the same molecule, the TGI [55] was > 100 µM, the TGI [25] was > 100 µM and the TGI [26] was > 100 µM. For the same molecule, the TGI [27] was > 100 µM, the TGI [31] was > 100 µM and the TGI [32] was > 100 µM. The TGI [34] was > 100 µM, the TGI [35] was > 100 µM and the TGI [36] was > 100 µM. The TGI [57] was > 100 µM, the TGI [58] was > 100 µM and the TGI [38] was > 100 µM. For the same molecule, the TGI [39] was > 100 µM, the TGI [40] was > 100 µM and the TGI [41] was > 100 µM. The TGI [42] was > 100 µM, the TGI [43] was > 100 µM and the TGI [44] was > 100 µM. For the same molecule, the TGI [45] was > 100 µM, the TGI [59] was > 100 µM and the TGI [47] was > 100 µM. For the same molecule, the TGI [48] was > 100 µM.
With `CSc1ccccc1NC1=NCCO1` the TGI [1] was > 100 µM, the TGI [2] was > 100 µM and the TGI [3] was > 100 µM. For the same molecule, the TGI [4] was > 100 µM, the TGI [5] was > 100 µM and the TGI [49] was > 100 µM. For the same molecule, the TGI [6] was > 100 µM, the TGI [7] was > 100 µM and the TGI [8] was > 100 µM. For the same molecule, the TGI [10] was > 100 µM, the TGI [50] was > 100 µM and the TGI [11] was > 100 µM. The TGI [12] was > 100 µM, the TGI [13] was > 100 µM and the TGI [51] was > 100 µM. For the same molecule, the TGI [14] was > 100 µM, the TGI [52] was > 100 µM and the TGI [15] was > 100 µM. For the same molecule, the TGI [16] was > 100 µM, the TGI [17] was > 100 µM and the TGI [18] was > 100 µM. For the same molecule, the TGI [19] was > 100 µM, the TGI [20] was > 100 µM and the TGI [21] was > 100 µM. For the same molecule, the TGI [22] was > 100 µM, the TGI [23] was > 100 µM and the TGI [24] was > 100 µM. For the same molecule, the TGI [54] was > 100 µM, the TGI [25] was > 100 µM and the TGI [26] was > 100 µM. The TGI [27] was > 100 µM, the TGI [28] was > 100 µM and the TGI [29] was > 100 µM. The TGI [30] was > 100 µM, the TGI [31] was > 100 µM and the TGI [32] was > 100 µM. For the same molecule, the TGI [33] was > 100 µM, the TGI [34] was > 100 µM and the TGI [56] was > 100 µM. The TGI [35] was > 100 µM, the TGI [36] was > 100 µM and the TGI [57] was > 100 µM. For the same molecule, the TGI [58] was > 100 µM, the TGI [37] was > 100 µM and the TGI [38] was > 100 µM. The TGI [39] was > 100 µM, the TGI [40] was > 100 µM and the TGI [41] was > 100 µM. For the same molecule, the TGI [42] was > 100 µM, the TGI [43] was > 100 µM and the TGI [44] was > 100 µM. For the same molecule, the TGI [45] was > 100 µM, the TGI [59] was > 100 µM and the TGI [46] was > 100 µM. The TGI [47] was > 100 µM and the TGI [48] was > 100 µM.
